From the supplement of paper PMC10307832 come the findings set out here.

Holding throughout (experiment): relative viability (nuclei count vs DMSO), 5 days (fraction); higher = more cells survive
Compound in the assay “Cediranib + Foretinib”: COc1cc2c(Oc3ccc4[nH]c(C)cc4c3F)ncnc2cc1OCCCN1CCCC1 [Cediranib] + COc1cc2c(Oc3ccc(NC(=O)C4(C(=O)Nc5ccc(F)cc5)CC4)cc3F)ccnc2cc1OCCCN1CCOCC1 [Foretinib] (partner 0.25 µM)
In short, it runs like this: (§1)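 Lung cancer cell lines in 1536-well plates got either a single drug or a fixed anchor-drug dose together with five library-drug doses (not always all listed) in √10 steps, by pin tool, on the day after seeding. Nuclei were counted after 5 days, and relative viability is the treated-to-vehicle ratio of nuclei counts. Values are medians of duplicate plates.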

Compound in the assay “Halofuginone + OSI-027”: O=C(C[C@H]1NCCC[C@@H]1O)Cn1cnc2cc(Br)c(Cl)cc2c1=O (racemic) [Halofuginone] + COc1cccc2cc(-c3nc([C@H]4CC[C@H](C(=O)O)CC4)n4ncnc(N)c34)[nH]c12 [OSI-027] (partner 0.5 µM)
In short, it runs like this:
as §1

Compound in the assay “Decitabine + Tozasertib”: Nc1ncn([C@H]2C[C@H](O)[C@@H](CO)O2)c(=O)n1 [Decitabine] + Cc1cc(Nc2cc(N3CCN(C)CC3)nc(Sc3ccc(NC(=O)C4CC4)cc3)n2)n[nH]1 [Tozasertib] (partner 0.1 µM)
The gist of the method:
as §1

Compound in the assay “Decitabine + Olaparib”: Nc1ncn([C@H]2C[C@H](O)[C@@H](CO)O2)c(=O)n1 [Decitabine] + O=C(c1cc(Cc2n[nH]c(=O)c3ccccc23)ccc1F)N1CCN(C(=O)C2CC2)CC1 [Olaparib] (partner 8 µM)
The gist of the method: as §1

As for UMC-11, the relative viability with Cediranib + Foretinib (first compound 0.04 µM) is 1.1; with Cediranib + Foretinib (first compound 0.4 µM), 1.03; with Cediranib + Foretinib (first compound 4 µM), 1.05; with Halofuginone + OSI-027 (first compound 0.001 µM), 0.44; with Halofuginone + OSI-027 (first compound 0.003162 µM) it was 0.461; with Halofuginone + OSI-027 (first compound 0.01 µM), 0.467. Further, the relative viability with Halofuginone + OSI-027 (first compound 0.03162 µM) stood at 0.46; with Halofuginone + OSI-027 (first compound 0.1 µM), 0.368; in the assay with Decitabine + Tozasertib (first compound 0.04 µM), 0.202; with Decitabine + Tozasertib (first compound 0.1265 µM), 0.186; with Decitabine + Tozasertib (first compound 0.4 µM) it was 0.186; with Decitabine + Tozasertib (first compound 1.265 µM), 0.192. Besides, the relative viability was 0.183 in the assay with Decitabine + Tozasertib (first compound 4 µM); 0.312 with Decitabine + Olaparib (first compound 0.04 µM); 0.301 with Decitabine + Olaparib (first compound 0.1265 µM); 0.273 with Decitabine + Olaparib (first compound 0.4 µM); 0.218 with Decitabine + Olaparib (first compound 1.265 µM); 0.2 with Decitabine + Olaparib (first compound 4 µM).
